We go through one compound from patent US5352804A, “Isolation and structure of Halistatin 2” (Arizona Board of Regents, a body corporate, acting on …, priority 1993, dated 1994).

The subject of assay [1] is DMS 273. The experiment in a line: NCI human tumor in vitro primary screen. It is filed as cell-based. Particulars: small cell lung cancer.
Assay [2] relates to DMS 114. The experiment in a line: NCI human tumor in vitro primary screen. It is filed as cell-based. Particulars: small cell lung cancer.
[3] abbreviates: read-out: Log10 GI50 (converted).
[4] abbreviates: read-out: Log10 TGI (converted).
[5] abbreviates: read-out: averaged negative log10 GI50 (converted).

Structures are written as SMILES. Read-outs that look alike come from different tables or passages of the source.

Take `C=C1CC2CCC34CC5OC6C(O3)C3OC(CCC3OC6(O)C5O4)CC(=O)OC3C(CC4OC(CCC1O2)CC(C)C4=C)OC1CC2OC4(CC2OC1C3C)CC1OC2(CC(C)C3OC5CC(C(O)CO)OC5CC3O2)CC(C)C1O4` (stereo not drawn) [halistatin 2]: the GI50 is 0.129 nM in assay [1] (setting [3]), 0.129 nM in assay [1] (setting [5]), 0.339 nM in assay [2] (setting [3]) and 0.339 nM in assay [2] (setting [5]). Besides, the results for the IC (TGI) in assay [1] (setting [4]) and in assay [2] (setting [4]) were 5.5 nM and 1.91 nM, respectively.

For orientation: GI50 means the concentration giving 50% growth inhibition.
